In BindingDB's records for doi:10.1016/s0960-894x(00)00185-2 (Yale University, 2000):

Tests used:
[1] = target: D(2) dopamine receptor (Rattus norvegicus) (UniProt P61169); assay: Compound was evaluated for affinity towards dopamine D2-like receptor in homogenate of caudate putamen tissue from rat brain
[2] = target: T1, 5-hydroxytryptamine receptor 2C (Rattus norvegicus, UniProt P08909); assay: ChEBML_2831
T1 sequence (P08909 whole entry): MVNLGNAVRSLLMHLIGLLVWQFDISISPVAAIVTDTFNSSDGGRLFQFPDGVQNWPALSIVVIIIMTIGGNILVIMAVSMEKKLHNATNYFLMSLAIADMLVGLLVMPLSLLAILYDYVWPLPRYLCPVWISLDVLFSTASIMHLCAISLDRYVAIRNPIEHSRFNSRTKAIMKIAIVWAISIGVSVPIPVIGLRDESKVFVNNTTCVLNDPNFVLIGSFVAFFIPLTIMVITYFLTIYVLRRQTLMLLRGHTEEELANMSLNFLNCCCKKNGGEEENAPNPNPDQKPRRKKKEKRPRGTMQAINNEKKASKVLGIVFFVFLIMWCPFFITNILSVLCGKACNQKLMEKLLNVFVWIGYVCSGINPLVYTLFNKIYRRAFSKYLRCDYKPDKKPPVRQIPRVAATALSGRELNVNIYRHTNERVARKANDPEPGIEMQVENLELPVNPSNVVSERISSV
Description: Compound was evaluated for affinity towards cerebral 5-hydroxytryptamine 2C receptor in homogenate of caudate putamen tissue from rat brain

[3] = target: 5-hydroxytryptamine receptor 2A (Rattus norvegicus, UniProt P14842); assay: ChEBML_2648
Chain of 5-hydroxytryptamine receptor 2A (P14842 whole entry): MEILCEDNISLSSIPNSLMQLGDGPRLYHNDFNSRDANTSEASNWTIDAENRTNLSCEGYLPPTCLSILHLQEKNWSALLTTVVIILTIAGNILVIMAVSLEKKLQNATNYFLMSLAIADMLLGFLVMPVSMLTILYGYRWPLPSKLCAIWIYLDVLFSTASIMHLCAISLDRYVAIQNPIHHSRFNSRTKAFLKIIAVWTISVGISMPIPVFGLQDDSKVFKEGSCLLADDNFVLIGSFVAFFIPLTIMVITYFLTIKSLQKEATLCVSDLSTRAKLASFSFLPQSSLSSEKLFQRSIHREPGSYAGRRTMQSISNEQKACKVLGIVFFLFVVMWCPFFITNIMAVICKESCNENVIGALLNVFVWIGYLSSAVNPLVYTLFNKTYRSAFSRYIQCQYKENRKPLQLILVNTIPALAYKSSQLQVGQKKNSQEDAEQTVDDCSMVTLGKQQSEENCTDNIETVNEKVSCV
Description: Compound was evaluated for affinity towards cerebral 5-hydroxytryptamine 2A receptor in homogenate of caudate putamen tissue from rat brain

D(1A) dopamine receptor = D(1A) dopamine receptor (Rattus norvegicus, UniProt P18901); assay: ChEBML_59008
Chain of D(1A) dopamine receptor (P18901 whole entry): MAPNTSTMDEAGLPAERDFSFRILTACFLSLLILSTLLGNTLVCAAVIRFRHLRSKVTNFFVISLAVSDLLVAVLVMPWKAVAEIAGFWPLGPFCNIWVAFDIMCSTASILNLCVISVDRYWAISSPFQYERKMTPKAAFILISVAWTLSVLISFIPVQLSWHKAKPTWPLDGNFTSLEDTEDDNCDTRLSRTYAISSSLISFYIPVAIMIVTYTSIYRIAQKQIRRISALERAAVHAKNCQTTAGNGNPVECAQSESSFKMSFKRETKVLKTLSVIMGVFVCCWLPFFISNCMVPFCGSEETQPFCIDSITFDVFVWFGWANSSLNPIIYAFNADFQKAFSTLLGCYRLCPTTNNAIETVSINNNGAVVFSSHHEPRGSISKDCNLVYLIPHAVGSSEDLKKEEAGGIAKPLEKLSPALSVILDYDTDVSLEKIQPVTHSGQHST
Description: Compound was evaluated for affinity towards dopamine D1-like receptor in homogenate of caudate putamen tissue from rat brain

Chain of D(2) dopamine receptor (Rattus norvegicus) (P61169 whole entry, looked up): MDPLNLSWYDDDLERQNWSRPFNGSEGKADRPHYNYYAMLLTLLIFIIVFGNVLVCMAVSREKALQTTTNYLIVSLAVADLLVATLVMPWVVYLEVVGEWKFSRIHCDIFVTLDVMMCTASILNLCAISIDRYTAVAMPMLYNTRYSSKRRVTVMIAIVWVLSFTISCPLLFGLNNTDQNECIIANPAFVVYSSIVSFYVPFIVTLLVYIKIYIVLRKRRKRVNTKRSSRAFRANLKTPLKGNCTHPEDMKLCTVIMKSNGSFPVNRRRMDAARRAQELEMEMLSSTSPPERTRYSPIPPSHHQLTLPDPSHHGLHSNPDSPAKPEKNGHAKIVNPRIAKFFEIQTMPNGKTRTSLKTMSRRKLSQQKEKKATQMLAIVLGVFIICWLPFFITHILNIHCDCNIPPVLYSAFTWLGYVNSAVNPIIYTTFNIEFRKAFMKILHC

SMILES	Ki [1] [nM]	Ki [2] [nM]	Ki [3] [nM]	Ki (D(1A) dopamine receptor) [nM]
CN1CCc2cc(Cl)c(O)cc2C(c2cccc(Br)c2)C1 (centres undefined) [5-(3-Bromo-phenyl)-8-chloro-3-methyl-2,3,4,5-tetrahydro-1H-benzo[d]azepin-7-ol]	1120			
CN1CCc2cc(Cl)c(O)cc2C(c2ccccc2C(=O)C2=CC=C[C@@H]2[Re]([CH]=O)([CH]=O)[CH]=O)C1 (some centres undefined) [Cyclopentadienyltricarbonylrheniumbenzazepine (2`-CPTR-SCH-23390)]	549	29	17	0.61
CN1CCc2cc(Cl)c(O)cc2C(c2cccc(C(=O)C3=CC=C[C@@H]3[Re]([CH]=O)([CH]=O)[CH]=O)c2)C1 (some centres undefined) [Cyclopentadienyltricarbonylrheniumbenzazepine (3`-CPTR-SCH-23390)]	> 10000	106	227	2.9
